Measurements reported in ChEMBL document CHEMBL1125093, “Structure-activity relationships of 8-cycloalkyl-1,3-dipropylxanthines as antagonists of adenosine receptors” (J Med Chem, 1990).

Tests used:
[1] = target: Adenosine receptor A1 (Rattus norvegicus) (UniProt P25099); experiment: Antagonist activity against adenosine A1 receptor in rat adipocytes
[2] = target: Adenosine receptor A2 (Homo sapiens); experiment: Antagonistic activity against adenosine A2 receptor in human platelets

Row | SMILES | Ki [1] [µM] | Ki [2] [µM]
1 | CCCn1c(=O)c2nc(CC3CCCC3)[nH]c2n(CCC)c1=O | 0.069 | > 10
2 | CCCNC(=O)C1CCC(c2nc3c([nH]2)c(=O)n(CCC)c(=O)n3CCC)CC1 (centres undefined) | 0.085 | > 3
3 | CCCn1c(=O)c2nc(C3CCC(C(=O)OC)CC3)[nH]c2n(CCC)c1=O (centres undefined) | 0.13 | 0.56
4 | CCCn1c(=O)c2nc(C3=C(C(=O)O)CCC3)[nH]c2n(CCC)c1=O | > 10 | > 10
5 | CCCn1c(=O)c2nc(N3CCCC3)[nH]c2n(CCC)c1=O | 0.076 | –
6 | CCCn1c(=O)c2[nH]c(C34CC5CC(CC(C5)C3)C4)nc2n(CCC)c1=O | 0.082 | –
7 | CCCn1c(=O)c2nc(C3CCCC(N)C3)[nH]c2n(CCC)c1=O (centres undefined) | 0.05 | > 10
8 | CCCn1c(=O)c2nc(C3CCC3C(=O)O)[nH]c2n(CCC)c1=O (centres undefined) | 0.66 | > 10
9 | CCCn1c(=O)c2nc(C3CCC(C(=O)O)CC3)[nH]c2n(CCC)c1=O (stereo in doubt; 1) | 0.43 | > 10
10 | CCCn1c(=O)c2nc(C3CCC(C(=O)O)CC3)[nH]c2n(CCC)c1=O (stereo in doubt; 2) | 0.059 | 1.5
11 | CCCn1c(=O)c2nc(C3CCCCC3C(=O)O)[nH]c2n(CCC)c1=O (stereo in doubt; 3) | > 10 | > 10
12 | CCCn1c(=O)c2nc(C3CCCCC3C(=O)O)[nH]c2n(CCC)c1=O (stereo in doubt; 4) | > 3 | > 3
13 | CCCn1c(=O)c2[nH]c(C3CCC(N)CC3)nc2n(CCC)c1=O (stereo in doubt; 6) | 0.09 | –
14 | CCCn1c(=O)c2[nH]c(C3CCC(N)CC3)nc2n(CCC)c1=O (stereo in doubt; 7) | 0.16 | –
15 | CCCn1c(=O)c2nc(C3CCC(NC(C)=O)CC3)[nH]c2n(CCC)c1=O (stereo in doubt; 10) | 0.07 | 1
16 | CCCn1c(=O)c2nc(C3CCC(C(=O)N(C)CCN(C)C)CC3)[nH]c2n(CCC)c1=O (stereo in doubt; 15) | 0.085 | 0.45
17 | CCCn1c(=O)c2nc(C3CCCC3C(=O)O)[nH]c2n(CCC)c1=O (stereo in doubt; 17) | 0.14 | > 10
18 | CCCn1c(=O)c2nc(C3CCCC3C(=O)N(C)CCN(C)C)[nH]c2n(CCC)c1=O (stereo in doubt; 19) | > 3 | > 3
19 | CCCn1c(=O)c2nc(C3CCCC3C(=O)N(C)CCN(C)C)[nH]c2n(CCC)c1=O (stereo in doubt; 20) | 0.053 | > 10
20 | CCCn1c(=O)c2nc(C3CCCC3C(=O)O)[nH]c2n(CCC)c1=O (trans isomer) | 0.1 | > 10

Compounds with a lower Ki [1], results first:

Row | Ki [1] [µM] | Ki [2] [µM] | SMILES
21 | 0.008 | – | CCCn1c(=O)c2nc([C@H]3CC[C@H](CNC(C)=O)CC3)[nH]c2n(CCC)c1=O
22 | 0.0026 | 0.12 | CCCn1c(=O)c2nc(NC3CCC3)[nH]c2n(CCC)c1=O
23 | 0.041 | 1 | CCCn1c(=O)c2nc(C3CCCC(NC(C)=O)C3)[nH]c2n(CCC)c1=O (centres undefined)
24 | 0.008 | 0.13 | CCCn1c(=O)c2nc(NC3CCCC3)[nH]c2n(CCC)c1=O
25 | 0.022 | 0.49 | CCCn1c(=O)c2nc(N3CCCCC3)[nH]c2n(CCC)c1=O
26 | 0.02 | – | CCCn1c(=O)c2nc(C3CCC(CN)CC3)[nH]c2n(CCC)c1=O (centres undefined)
27 | 0.011 | > 10 | CCCn1c(=O)c2nc(C3CC3C)[nH]c2n(CCC)c1=O (centres undefined)
28 | 0.014 | 0.68 | CCCn1c(=O)c2nc(NC3CCCCC3)[nH]c2n(CCC)c1=O
29 | 0.012 | > 10 | CCCn1c(=O)c2nc(C3CCC(NC(C)=O)CC3)[nH]c2n(CCC)c1=O (stereo in doubt; 9)
30 | 0.017 | 0.26 | CCCn1c(=O)c2nc(C3CCC(C(=O)N(C)CCN(C)C)CC3)[nH]c2n(CCC)c1=O (stereo in doubt; 14)
